From patent US20250108119A1, “NOVEL STEROID PAYLOADS, STEROID LINKERS, ADCs CONTAINING AND USE THEREOF” (IMMUNEXT, INC., priority 2021, published 2025)

Tested on: LPS stimulated human PBMCs
Experiment: LPS stimulated human PBMC, IL-1β and IL-6 ELISA
Format: cell-based
Details: for inhibition of IL-1β production / inhibition of IL-1β and IL-6 production: 24 hr; for inhibition of IL-1β and IL-6 production: Experiment 1: free payload 1000-1 nM, 1 ng/ml LPS
Description: The potency of novel steroids was assessed in a model of LPS stimulated human peripheral blood mononuclear cells (PBMCS). Stimulated PBMCs in this assay produce multiple pro-inflammatory cytokines1.
In all the following experiments, human PBMC, isolated from 1-2 healthy donors per study, were stimulated with LPS to induce cytokine production.
LPS was added either immediately after addition of free payload, or in the case of conjugates, four hours after addition of the conjugate.
Cells were plated in flat bottom 96 well plates at a final concentration of 150,000 cells/well, with technical duplicates for each condition.
Test agents were serially diluted in the assay media and added to a final concentration of 1,000 nM-1 nM or 0.2 nM depending on the assay or as a no treatment control.
LPS stimulation was added to a final concentration of 1 ng/ml.
Human IL-1β and IL-6 ELISA kits were used on supernatants according to vendor protocols. All graphs were prepared with GraphPad (Prism).

[1] = Experiment 6: free payload 1000-0.16 nM

In the case of `C[C@]12C=CC(=O)C=C1CC[C@@H]1[C@@H]2[C@@H](O)C[C@@]2(C)[C@H]1C[C@H]1O[C@@H](c3ccc(CC4CC5(C4)CC(NC(=O)[C@H](CCC(=O)O)NC(=O)CNC(=O)CBr)C5)cc3)O[C@]12C(=O)COP(=O)(O)O` (stereo partly drawn) [INX A7, (S)-4-(2-(2-bromoacetamido)acetamido)-5-((6-(4-((6aR,6bS,7S,8aS,8bS,10R,11aR,12aS,12bS)-7-hydroxy-6a,8a-dimethyl-4-oxo-8b-(2-(phosphonooxy)acetyl)-2,4,6a,6b,7,8,8a,8b,11a,12,12a,12b-dodecahydro-1H-naphtho[2′,1′:4,5]indeno[1,2-d][1,3]dioxol-10-yl)benzyl)spiro[3.3]heptan-2-yl)amino)-5-oxopentanoic acid], the “potency of conjugated linker payloads over INX J (conclusions)” value (“potency … over INX J (conclusions)” below) is reported as “enhanced potency”.

For `C[C@]12C=CC(=O)C=C1CC[C@@H]1[C@@H]2[C@@H](O)C[C@@]2(C)[C@H]1C[C@H]1O[C@@H](c3ccc(CC4CC45CCC(NC(=O)[C@H](CCC(=O)O)NC(=O)CNC(=O)CBr)CC5)cc3)O[C@]12C(=O)CO` (stereo partly drawn) [INX A9, (4S)-4-(2-(2-bromoacetamido)acetamido)-5-((1-(4-((6aR,6bS,7S,8aS,8bS,10R,11aR,12aS,12bS)-7-hydroxy-8b-(2-hydroxyacetyl)-6a,8a-dimethyl-4-oxo-2,4,6a,6b,7,8,8a,8b,11a,12,12a,12b-dodecahydro-1H-naphtho[2′,1′:4,5]indeno[1,2-d][1,3]dioxol-10-yl)benzyl)spiro[2.5]octan-6-yl)amino)-5-oxopentanoic acid], the “potency … over INX J (conclusions)” value was “enhanced potency”.

With `C[C@]12C=CC(=O)C=C1[C@@H](F)C[C@H]1[C@@H]3C[C@H]4O[C@@H](c5ccc(CC6CC7(C6)CC(NC(=O)[C@H](CCC(=O)O)NC(=O)CNC(=O)CBr)C7)cc5)O[C@@]4(C(=O)COP(=O)(O)O)[C@@]3(C)C[C@H](O)[C@@]12F` (stereo partly drawn) [INX A12, (S)-4-(2-(2-bromoacetamido)acetamido)-5-((6-(4-((2S,6aS,6bR,7S,8aS,8bS,10R,11aR,12aS,12bS)-2,6b-difluoro-7-hydroxy-6a,8a-dimethyl-4-oxo-8b-(2-(phosphonooxy)acetyl)-2,4,6a,6b,7,8,8a,8b,11a,12,12a,12b-dodecahydro-1H-naphtho[2′,1′:4,5]indeno[1,2-d][1,3]dioxol-10-yl)benzyl)spiro[3.3]heptan-2-yl)amino)-5-oxopentanoic acid] the “potency … over INX J (conclusions)” value was “enhanced potency”.

`C[C@]12C=CC(=O)C=C1CC[C@H]1[C@@H]3C[C@H]4O[C@@H](c5ccc(CC67CC(N)(C6)C7)cc5)O[C@@]4(C(=O)CO)[C@@]3(C)C[C@H](O)[C@@]12F` [INX-SM-13, (6aS,6bR,7S,8aS,8bS,10R,11aR,12aS,12bS)-10-(4-((3-aminobicyclo[1.1.1]pentan-1-yl)methyl)phenyl)-6b-fluoro-7-hydroxy-8b-(2-hydroxyacetyl)-6a,8a-dimethyl-1,2,6a,6b,7,8,8a,8b,11a,12,12a,12b-dodecahydro-4H-naphtho[2′,1′:4,5]indeno[1,2-d][1,3]dioxol-4-one] was tested, and the “inhibition of IL-1β production” value [1] was “did not lead to increased potency over the non-fluorinated payload”.

For `C[C@]12C=CC(=O)C=C1[C@@H](F)C[C@H]1[C@@H]3C[C@H]4O[C@@H](c5ccc(CC67CC(N)(C6)C7)cc5)O[C@@]4(C(=O)CO)[C@@]3(C)C[C@H](O)[C@@]12F` [INX-SM-24, (2S,6aS,6bR,7S,8aS,8bS,10R,11aR,12aS,12bS)-10-(4-((3-aminobicyclo[1.1.1]pentan-1-yl)methyl)phenyl)-2,6b-difluoro-7-hydroxy-8b-(2-hydroxyacetyl)-6a,8a-dimethyl-1,2,6a,6b,7,8,8a,8b,11a,12,12a,12b-dodecahydro-4H-naphtho[2′,1′:4,5]indeno[1,2-d][1,3]dioxol-4-one], the “inhibition of IL-1β production” value [1] was “increased potency over the non-fluorinated INX-SM-3”.

`C[C@]12C=CC(=O)C=C1CC[C@@H]1[C@@H]2[C@@H](O)C[C@@]2(C)[C@H]1C[C@H]1O[C@H](c3ccc(CC45CC(N)(C4)C5)cc3)O[C@]12C(=O)CO` [INX-SM-53, (6aR,6bS,7S,8aS,8bS,10S,11aR,12aS,12bS)-10-(4-((3-aminobicyclo[1.1.1]pentan-1-yl)methyl)phenyl)-7-hydroxy-8b-(2-hydroxyacetyl)-6a,8a-dimethyl-1,2,6a,6b,7,8,8a,8b, 11a,12,12a,12b-dodecahydro-4H-naphtho[2′,1′:4,5]indeno[1,2-d][1,3]dioxol-4-one] was tested, and the “inhibition of IL-1β and IL-6 production” value (n=1 donor) was “did not show inhibition”.

With `C[C@]12C=CC(=O)C=C1CC[C@@H]1[C@@H]2[C@@H](O)C[C@@]2(C)[C@H]1C[C@H]1O[C@H](C34CC(Cc5cccc(N)c5)(C3)C4)O[C@]12C(=O)CO` [INX-SM-54, (6aR,6bS,7S,8aS,8bS,10S,11aR,12aS,12bS)-10-(3-(3-aminobenzyl)bicyclo[1.1.1]pentan-1-yl)-7-hydroxy-8b-(2-hydroxyacetyl)-6a,8a-dimethyl-1,2,6a,6b,7,8,8a,8b,11a,12,12a,12b-dodecahydro-4H-naphtho[2′,1′:4,5]indeno[1,2-d][1,3]dioxol-4-one] the “inhibition of IL-1β and IL-6 production” value (n=1 donor) was “did not show inhibition”.

With `C[C@]12C=CC(=O)C=C1CC[C@@H]1[C@@H]2[C@@H](O)C[C@@]2(C)[C@H]1C[C@H]1O[C@H](c3cnc(Cc4cccc(N)c4)s3)O[C@]12C(=O)CO` [INX-SM-56, (6aR,6bS,7S,8aS,8bS,10S,11aR,12aS,12bS)-10-(2-(3-aminobenzyl)thiazol-5-yl)-7-hydroxy-8b-(2-hydroxyacetyl)-6a,8a-dimethyl-1,2,6a,6b,7,8,8a,8b, 11a,12,12a,12b-dodecahydro-4H-naphtho[2′,1′:4,5]indeno[1,2-d][1,3]dioxol-4-one] the “inhibition of IL-1β production” value (Experiment 2: free payload 1000-1 nM, n=1 donor) was “did not show inhibition”.

`C[C@]12C=CC(=O)C=C1[C@@H](F)C[C@H]1[C@@H]3C[C@H]4O[C@H](c5ccc(CC67CC(N)(C6)C7)cc5)O[C@@]4(C(=O)CO)[C@@]3(C)C[C@H](O)[C@@]12F` [INX-SM-74, (2S,6aS,6bR,7S,8aS,8bS,10S,11aR,12aS,12bS)-10-(4-((3-aminobicyclo[1.1.1]pentan-1-yl)methyl)phenyl)-2,6b-difluoro-7-hydroxy-8b-(2-hydroxyacetyl)-6a,8a-dimethyl-1,2,6a,6b,7,8,8a,8b,11a,12,12a,12b-dodecahydro-4H-naphtho[2′,1′:4,5]indeno[1,2-d][1,3]dioxol-4-one] was tested, and the “potency of free payloads (conclusions)” value was “moderate potency albeit much weaker than the R stereoisomer with the same halogenation”.
